Test results: article PMC7508628, “Targeting the Respiratory Syncytial Virus N^0-P Complex with Constrained α-Helical Peptides in Cells and Mice” (Antimicrobial Agents and Chemotherapy, 2020)
Where a SMILES comes first, the peptide text is derived from it. Bridges are numbered along the chain shown (N, C = ends). [ ]: non-standard residue; d: D form. R8 = C=CCCCCCC[C@@](C)(N)C(=O)O; R5 = C=CCCC[C@@](C)(N)C(=O)O; S5 = C=CCCC[C@](C)(N)C(=O)O

Tests used:
[1] = Circular dichroism spectroscopy, α-helical content; format: physicochemical; conditions: CD, 10 mM phosphate buffer pH 7.5, 50 μM peptide, 25°C, calculated from ellipticity at 222 nm; average of three measurements
Procedure, shortened: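 Peptides at 50 μM in 10 mM phosphate, pH 7.5, scanned 180–260 nm at 25 °C in a 0.5-mm cell, three scans averaged and buffer-subtracted. Percent helicity derived from per-residue molar ellipticity at 222 nm using a length-corrected 40,000 maximum.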

rHRSV-mCherry = conditions: read-out: EC50 (half-maximal response inhibitory concentration), inhibition of RSV infection; HEp-2 cells, MOI 0.2, peptides added after 2 h infection, mCherry fluorescence at 48 h postinfection; duplicates
BSRT7/5 cells = assay: Viability of BSRT7/5 cells transfected with the minigenome; conditions: 25 μM peptide
Text: BSRT7/5 cells were transfected with plasmids pP, pN, pM2-1, pL, and pM/Luc, together with pRSV-β-Gal for transfection standardization. […] Error bars are standard deviations from duplicates. Data are representative of those from two independent experiments.
Briefly, the dicistronic RSV minigenome pM/Luc was cotransfected into BSRT7/5 cells expressing T7 RNA polymerase, together with plasmids pN, pP, pL, and pM2-1, resulting in the replication and transcription of the minigenome.

HEp-2 cells = assay: HEp-2 cell viability (CellTiter-Glo luminescent cell viability assay); conditions: peptide alone at 50 μM; duplicates
Experimental: (B) HEp-2 cell viability upon treatment with peptides alone at peptide concentrations of 50, 25, and 12.5 μM. Error bars are standard deviations from duplicates. Data are representative of those from two independent experiments.
Cytotoxicity assays were done with the CellTiter-Glo luminescent cell viability assay (Promega). Each experiment was performed in duplicate and repeated at least twice.

RSV = conditions: monthly injection during the peak season, at-risk infants; cited from earlier work
Text: Respiratory syncytial virus (RSV) is very contagious and represents the main cause of severe acute respiratory tract illness in young children worldwide. […] A recent study performed by Pneumonia Etiology Research for Child Health ...

Row | Compound | % helicity [1] [%] | EC50 (rHRSV-mCherry) [µM] | Cell mortality of minigenome-transfected BSRT7/5 cells (BSRT7/5 cells) [%] | Toxicity for uninfected HEp-2 cells (cell viability) (HEp-2 cells) | Efficacy of prophylactic treatment (RSV)
1 | CC[C@H](C)[C@H](NC(=O)[C@]1(C)CCCC=CCCCCCC[C@@](C)(NC(=O)[C@H](CCC(=O)O)NC(=O)[C@H](CC(N)=O)NC(=O)[C@H](C)NC(=O)[C@]2(C)CCCC=CCCC[C@@](C)(NC(=O)[C@H](Cc3ccccc3)NC(=O)[C@H](CCC(=O)O)NC(C)=O)C(=O)NCC(=O)N[C@@H](CCCCN)C(=O)N2)C(=O)N[C@@H](C)C(=O)N[C@@H]([C@@H](C)O)C(=O)N[C@@H](CCCCN)C(=O)N[C@@H](Cc2ccccc2)C(=O)N[C@@H](CC(C)C)C(=O)N[C@@H](CCC(=O)O)C(=O)N1)C(=O)N[C@@H](CCCCN)C(=O)NCC(=O)N[C@@H](CCCCN)C(=O)N[C@@H](Cc1ccccc1)C(=O)N[C@@H](C)C(=O)N[C@@H](CO)C(N)=O [5d] (Ac-EF[R5]GK[S5]ANE[R8]ATKFLE[S5]IKGKFAS-NH2; staple 3-6, 10-17) | 75.7 | 6 ± 4.2 | 40 | some toxicity | 
2 | palivizumab: monoclonal antibody administered monthly as an injectable for RSV prophylaxis |  |  |  |  | approximately 50%
